Patent US12404270B2, “Quinazoline derivatives as LPA receptor 2 inhibitors” (CHIESI FARMACEUTICI S.P.A., priority 2019, dated 2025)

What follows are compounds tested against T1, human recombinant LPA2 expressed in CHO cells (Homo sapiens, UniProt Q9HBW0) (assay: FLIPR calcium mobilization assay, LPA2 antagonism in CHO-hLPA2 cells). Conditions: CHO-hLPA2 cells, inhibition of LPA EC80 Ca2+ response, 30 min pre-incubation; read-out: LPA2 IC50.
T1 construct: expressed in transfected cells; host or cells: CHO (CHO-hLPA2 cell line)
Assay type: cell-based
Description: The effectiveness of compounds of the present invention as LPA2 antagonist can be determined at the human recombinant LPA2 expressed in CHO cells, using a FLIPR assay in 384 well format.
CHO-hLPA2 cell lines are cultured in a humidified incubator at 5% CO2 in DMEM/F-12 (1:1) MIXTURE with 2 mM Glutamax, supplemented with 10% of Foetal Bovine Serum, 1 mM Sodium Pyruvate, 11 mM Hepes and 1× Penicillin/Streptomycin. CHO hLPA2 cells are seeded into black walled clear-bottom 384-well plates (#781091, Greiner Bio-One GmbH) at a density of 7,500 cells per well in 50 μl culture media and grown overnight in a 37° C. humidified CO2-incubator. Serial dilutions (1:3 or 1:4, 11 points CRC) of compounds are performed in 100% DMSO at 200× the final concentration. The compounds are diluted 1:50 prior to the experiment with Assay Buffer (20 mM HEPES, 145 mM NaCl, 5 mM KCl, 5.5 mM glucose, 1 mM MgCl2 and 2 mM CaCl2, pH 7.4 containing 0.01% Pluronic F-127) to obtain a solution corresponding to […] the final concentration in the assay (4×, 2% DMSO). The final concentration of DMSO in the assay will be 0.5% in each well. Medium is removed by aspiration and cells are then incubated with 30 μl of a loading solution containing 5 μM of the cytoplasmic Ca2+ indicator Cal-520 AM in Assay Buffer containing 2.5 mM probenecid for 30 min at 37° C. incubator (cell loading). The loaded cell plates are transferred into the FLIPR instrument and calcium responses are monitored during the on-line addition protocols. For testing of compounds, after the cell loading, 10 μl/well of 4× antagonists' solution was added onto the cells. […] Intracellular peak fluorescence values subtracted by baseline fluorescence are exported and analysed to determine IC50 values, respectively. The calcium response is expressed as percentage of the maximal inhibition of the EC80 agonist response.
The raw data (peak height expressed as relative fluorescence units) are normalized and transformed into “percent of inhibition”. Curve fitting and pIC50 (−Log IC50) estimations are carried out using a four-parameter logistic model using XLfit Software.

T1 sequence (Q9HBW0 whole entry): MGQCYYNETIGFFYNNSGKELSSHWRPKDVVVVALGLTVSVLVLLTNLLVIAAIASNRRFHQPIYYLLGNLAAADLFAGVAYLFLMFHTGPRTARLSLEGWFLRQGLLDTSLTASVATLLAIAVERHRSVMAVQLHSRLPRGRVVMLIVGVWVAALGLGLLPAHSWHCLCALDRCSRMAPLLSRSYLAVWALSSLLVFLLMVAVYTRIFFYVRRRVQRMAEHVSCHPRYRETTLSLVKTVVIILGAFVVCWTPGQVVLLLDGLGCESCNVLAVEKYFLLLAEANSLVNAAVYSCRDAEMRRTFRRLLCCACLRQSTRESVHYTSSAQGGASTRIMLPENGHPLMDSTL

Row | Structure (SMILES) | IC50 [nM]
1 | COC(=O)Nc1nc(C)c(S(=O)(=O)N2CCN(C[C@H](C)Nc3nc(C4CC4)nc4ccccc34)CC2)s1 [Example 15, methyl N-[5-({4-[(2S)-2-[(2-cyclopropylquinazolin-4-yl)amino]propyl]piperazin-1-yl}sulfonyl)-4-methyl-1,3-thiazol-2-yl]carbamate] | < 1000
2 | CC(=O)Nc1ncc(S(=O)(=O)N2CCN(C[C@H](C)Nc3nc(C4CC4)nc4c(C)cccc34)CC2)s1 [Example 19, N-[5-({4-[(2S)-2-[(2-cyclopropyl-8-methylquinazolin-4-yl)amino]propyl]piperazin-1-yl}sulfonyl)-1,3-thiazol-2-yl]acetamide] | < 1000
3 | COC(=O)Nc1nc(C)c(S(=O)(=O)N2CCN(C[C@H](C)Nc3ncnc4c(C(=O)N5CCC[C@@H]5C)cccc34)CC2)s1 (racemic) [Example 82, methyl N-[4-methyl-5-({4-[(2S)-2-({8-[(2S)-2-methylpyrrolidine-1-carbonyl]quinazolin-4-yl}amino)propyl]piperazin-1-yl}sulfonyl)-1,3-thiazol-2-yl]carbamate] | 10 to 100
4 | Cc1n[nH]c(-c2ccc(S(=O)(=O)N3CCN(C[C@H](C)Nc4ncnc5c(C(F)(F)F)cccc45)CC3)o2)c1C [Example 56, N-[(2S)-1-(4-{[5-(3,4-dimethyl-1H-pyrazol-5-yl)furan-2-yl]sulfonyl}piperazin-1-yl)propan-2-yl]-8-(trifluoromethyl)quinazolin-4-amine] | 10 to 100
5 | CC(=O)Nc1ncc(S(=O)(=O)N2CCN(C[C@H](C)Nc3nc(C)nc4c(C(F)(F)F)cccc34)CC2)s1 [Example 13, N-[5-({4-[(2S)-2-{[2-methyl-8-(trifluoromethyl)quinazolin-4-yl]amino}propyl]piperazin-1-yl}sulfonyl)-1,3-thiazol-2-yl]acetamide] | 10 to 100
6 | COC(=O)Nc1nc(C)c(S(=O)(=O)N2CCN(C[C@H](C)Nc3ncnc4c(C(=O)N5CCC[C@@H]5C(F)(F)F)cccc34)CC2)s1 (racemic) [Example 79, methyl N-[4-methyl-5-({4-[(2S)-2-({8-[(2R)-2-(trifluoromethyl)pyrrolidine-1-carbonyl]quinazolin-4-yl}amino)propyl]piperazin-1-yl}sulfonyl)-1,3-thiazol-2-yl]carbamate] | 10 to 100
7 | C[C@@H](CN1CCN(S(=O)(=O)c2ccc(-c3ccn[nH]3)o2)CC1)Nc1ncnc2c(C(F)(F)F)cccc12 [Example 67, N-[(2S)-1-(4-{[5-(1H-pyrazol-5-yl)furan-2-yl]sulfonyl}piperazin-1-yl)propan-2-yl]-8-(trifluoromethyl)quinazolin-4-amine] | < 1000
8 | COCc1nc(N[C@@H](C)CN2CCN(S(=O)(=O)c3ccc(-c4onc(C)c4C)s3)CC2)c2cccc(C(F)(F)F)c2n1 [Example 61, N-[(2S)-1-(4-{[5-(3,4-dimethyl-1,2-oxazol-5-yl)thiophen-2-yl]sulfonyl}piperazin-1-yl)propan-2-yl]-2-(methoxymethyl)-8-(trifluoromethyl)quinazolin-4-amine] | < 1000
9 | COC(=O)Nc1nc(C)c(S(=O)(=O)N2CCN(C[C@H](C)Nc3ncnc4c(C(=O)OC)cccc34)CC2)s1 [Example 17, methyl 4-{[(2S)-1-[4-({2-[(methoxycarbonyl)amino]-4-methyl-1,3-thiazol-5-yl}sulfonyl)piperazin-1-yl]propan-2-yl]amino}quinazoline-8-carboxylate] | 10 to 100
10 | COC(=O)Nc1nc(C)c(S(=O)(=O)N2CCN(C[C@H](C)Nc3nc(C)nc4c(C(F)(F)F)cccc34)CC2)s1 [Example 2, methyl N-[4-methyl-5-({4-[(2S)-2-{[2-methyl-8-(trifluoromethyl)quinazolin-4-yl]amino}propyl]piperazin-1-yl}sulfonyl)-1,3-thiazol-2-yl]carbamate] | 10 to 100
11 | COC(=O)c1cccc2c(N[C@@H](C)CN3CCN(S(=O)(=O)c4cnc(-c5ccccc5)s4)CC3)ncnc12 [Example 12, methyl 4-{[(2S)-1-{4-[(2-phenyl-1,3-thiazol-5-yl)sulfonyl]piperazin-1-yl}propan-2-yl]amino}quinazoline-8-carboxylate] | 10 to 100
12 | Cc1noc(-c2ccc(S(=O)(=O)N3CCN(C[C@H](C)Nc4ncnc5c(OC(F)F)cccc45)CC3)s2)c1C [Example 4, 8-(difluoromethoxy)-N-[(2S)-1-(4-{[5-(3,4-dimethyl-1,2-oxazol-5-yl)thiophen-2-yl]sulfonyl}piperazin-1-yl)propan-2-yl]quinazolin-4-amine] | 10 to 100
13 | COC(=O)c1cccc2c(N[C@@H](C)CN3CCN(S(=O)(=O)c4cnc(NC(C)=O)s4)CC3)ncnc12 [Example 20, methyl 4-{[(2S)-1-{4-[(2-acetamido-1,3-thiazol-5-yl)sulfonyl]piperazin-1-yl}propan-2-yl]amino}quinazoline-8-carboxylate] | 10 to 100
14 | Cc1noc(-c2ccc(S(=O)(=O)N3CCN(C[C@H](C)Nc4ncnc5c(C(=O)N6CCC[C@H]6C(F)(F)F)cccc45)CC3)s2)c1C (racemic) [Example 69, N-[(2S)-1-(4-{[5-(3,4-dimethyl-1,2-oxazol-5-yl)thiophen-2-yl]sulfonyl}piperazin-1-yl)propan-2-yl]-8-[(2S)-2-(trifluoromethyl)pyrrolidine-1-carbonyl]quinazolin-4-amine] | < 10
15 | COC(=O)Nc1nc(C)c(S(=O)(=O)N2CCN(C[C@H](C)Nc3ncnc4c(Br)cccc34)CC2)s1 [Example 101, methyl N-[5-({4-[(2S)-2-[(8-bromoquinazolin-4-yl)amino]propyl]piperazin-1-yl}sulfonyl)-4-methyl-1,3-thiazol-2-yl]carbamate] | 10 to 100
16 | COCC(=O)Nc1ncc(S(=O)(=O)N2CCN(C[C@H](C)Nc3ncnc4c(C(F)(F)F)cccc34)CC2)s1 [Example 24, 2-methoxy-N-[5-({4-[(2S)-2-{[8-(trifluoromethyl)quinazolin-4-yl]amino}propyl]piperazin-1-yl}sulfonyl)-1,3-thiazol-2-yl]acetamide] | < 1000
17 | COC(=O)Nc1nc(C)c(S(=O)(=O)N2CCN(C[C@H](C)Nc3nc(C4CC4)nc4c(C)cccc34)CC2)s1 [Example 18, methyl N-[5-({4-[(2S)-2-[(2-cyclopropyl-8-methylquinazolin-4-yl)amino]propyl]piperazin-1-yl}sulfonyl)-4-methyl-1,3-thiazol-2-yl]carbamate] | 10 to 100
18 | COC(=O)Nc1nc(C)c(S(=O)(=O)N2CCN(C[C@H](C)Nc3ncnc4c(C(=O)N5CCC[C@H]5C(F)(F)F)cccc34)CC2)s1 (racemic) [Example 84, methyl N-[4-methyl-5-({4-[(2S)-2-({8-[(2S)-2-(trifluoromethyl)pyrrolidine-1-carbonyl]quinazolin-4-yl}amino)propyl]piperazin-1-yl}sulfonyl)-1,3-thiazol-2-yl]carbamate] | < 1000
19 | Cc1cc(-c2ncc(S(=O)(=O)N3CCN(C[C@H](C)Nc4ncnc5c(C(F)(F)F)cccc45)CC3)s2)on1 [Example 63, N-[(2S)-1-(4-{[2-(3-methyl-1,2-oxazol-5-yl)-1,3-thiazol-5-yl]sulfonyl}piperazin-1-yl)propan-2-yl]-8-(trifluoromethyl)quinazolin-4-amine] | 10 to 100
20 | COCC(=O)Nc1nc(C)c(S(=O)(=O)N2CCN(C[C@H](C)Nc3ncnc4c(C(F)(F)F)cccc34)CC2)s1 [Example 25, 2-methoxy-N-[4-methyl-5-({4-[(2S)-2-{[8-(trifluoromethyl)quinazolin-4-yl]amino}propyl]piperazin-1-yl}sulfonyl)-1,3-thiazol-2-yl]acetamide] | < 1000
